The text below walks through data of patent publication US9688673B2, “Deoxycytidine kinase binding compounds” (THE REGENTS OF THE UNIVERSITY OF CALIFORNIA, priority 2011, dated 2017).

Test [1] has as its target T1, dCK activity (Mus musculus, UniProt P43346).
T1 construct: dCK expressing tissues such as Thymus (Thy), Bone marrow (BM), spleen (S) and the GI tract; from tissue; host or cells: living mice: thymus, bone marrow, spleen, GI tract
Briefly: Inhibition of dCK activity in vivo by 18F-FAC PET/CT imaging. The note with it: mice. Here is the method: Mice were treated with the dCK inhibitor and scanned at indicated time points by ^18F-FAC PET/CT to non-invasively determine dCK activity in vivo, throughout the body. ^18F-FAC PET/CT scans were performed as described in Shu, C. J. et al., “Novel PET probes specific for deoxycytidine kinase” J. Nucl.

Test [2] concerns CCRF-CEM (CEM) human acute T lymphoblastic leukemia. Briefly: S-phase arrest by flow cytometry, CEM cells. In kind it is cell-based. In general terms: In flow cytometry, cells or beads pass a laser one at a time.
Experimental: (§1) At the end of the incubation period cells were analyzed by flow cytometry to determine the effects of the treatment on cell cycle progression.
The subject of test [3] is NALM-6 human acute B lymphoblastic leukemia. Briefly: S-phase arrest by flow cytometry, NALM-6 cells. In kind it is cell-based.
Experimental: as §1
In test [4] the test system is IGROV1 human ovarian adenocarcinoma. Briefly: S-phase arrest by flow cytometry, IGROV1 cells. The test is classed as cell-based.
Experimental: as §1
Test [5] concerns CCRF-CEM (CEM) human acute T lymphoblastic leukemia. Briefly: Leukemic cell proliferation and viability, CEM cells, 72 hours. The test is classed as cell-based. The method, then:
Addition of 2.5 μM dC rescued the cell cycle from the thymidine block by the salvage pathway.

Test [6] relates to CEM shC cells. Briefly: Growth of CEM cells treated with dT and/or dC over 7 days. The test is classed as cell-based, human. The note with it: period of 7 days. An excerpt:
Compound F2.2.1 was not used in “Mock” experiments in either panel A or B.

For test [7], the system named is Primary murine T cells. Briefly: In vitro T lymphocyte proliferation (CFSE, flow cytometry). The test is classed as cell-based, C57/BL6 mice. The note with it: 1 μM final concentration, 72 hours after activation. The method, then:
Primary murine T cells were obtained from C57/BL6 mice. […] Prior to antibody-mediated activation, T cells were labeled with the fluorescent dye CFSE to allow measurements of cell division. […] The dCK inhibitors were used at 1 μM final concentration.

Test [8] deals with A549 human lung adenocarcinoma cells. Briefly: Cell proliferation and viability, A549 cells, 72 hours. The note with it: 1 μM F2.2.1 + 1 mM dT.
Experimental: At the end of the incubation period cells were analyzed by flow cytometry to determine the effects of the treatment on cell proliferation and viability.
The subject of test [9] is NALM-6 human acute B lymphoblastic leukemia. Briefly: Cell proliferation and viability, NALM-6 cells, 72 hours. The note with it: 1 μM F2.2.1 + 1.6 mM dT, media with 1.25 μM deoxycytidine.
Experimental: At the end of the incubation period cells were analyzed by flow cytometry to determine the effects of the treatment on leukemic cell proliferation and viability.
In test [10] the target is deoxycytidine kinase (dCK) (Homo sapiens, UniProt P27707). Briefly: Inhibition of [3H]-deoxycytidine (dCyd) uptake by CEM cells. The note with it: for Inhibition of [3H]-dCyd uptake by CEM cells, in words: ranking within panel / compared with DI-0105, DI-0110 and DI-0120.
Sequence of deoxycytidine kinase (dCK) (P27707 whole entry): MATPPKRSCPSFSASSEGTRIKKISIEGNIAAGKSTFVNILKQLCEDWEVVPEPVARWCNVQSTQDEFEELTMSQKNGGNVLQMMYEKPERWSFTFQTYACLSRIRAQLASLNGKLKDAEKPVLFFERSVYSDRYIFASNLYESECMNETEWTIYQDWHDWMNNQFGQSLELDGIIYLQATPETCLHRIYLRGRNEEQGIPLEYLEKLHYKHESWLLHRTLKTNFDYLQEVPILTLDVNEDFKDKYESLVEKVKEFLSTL
Experimental: Potency of dCK inhibitory activities of the compounds can be tested by measuring cellular substrate uptake and phosphorylation, for examples, uptake of [^3H]-deoxycytidine (dCyd or dC) into CEM (human) or L1210 (mouse) cells.
50,000 CEM cells/well were added to Millipore MultiScreen GV 96 well plates. Cells were resuspended at 1×10^6 cells/mL and incubated for 30 minutes at 37° C. The drug dilution plate was prepared by starting with an initial drug concentration of 10 mM in DMSO, and proceeding to make 1:5 dilutions for drug. 10 mL of drug was added to 40 mL DMSO and mixed by pipetting 10 times before removing 10 uL for next well (1:5 serial dilutions). The media and tritiated deoxycytidine was mixed together. 245 mL of media/probe mixture was added to each well of an Optiplate. 5 mL from drug plate was added to each well in the Optiplate to obtain drug/media/probe mixture and mixed. 50 mL of drug/media/probe mixture from Optiplate was added to the cell plate and incubate at 37° C. for 1 hour. The cell plate was placed on vacuum to aspirate, and then washed with ice cold PBS: 200 mL 1×PBS 4 times. The backing of the plate was peeled off, and the plate was placed in dryer for at least 30 minutes or until dry at 37° C. 100 mL Scintillation fluid per well was added, and the plate was sealed with clear plate seal. The plate was read on the Microbeta instrument.
For test [11], the system named is thymidine (dT) uptake. Briefly: Inhibition of thymidine (dT) uptake (selectivity vs. dC uptake). The conditions noted are these: read-out: dCKi IC50 dT.
Text: Potency of dCK inhibitory activities of the compounds can be tested by measuring cellular substrate uptake and phosphorylation, for examples, uptake of [^3H]-deoxycytidine (dCyd or dC) into CEM (human) or L1210 (mouse) cells. The compounds may be further screened for low off-target toxicity (e.g., inhibition of growth and proliferation of dCK negative cells) and selectivity over other nucleoside kinases (e.g., thymidine kinase).

By IC50 is commonly meant the concentration at which inhibition is half-maximal. The EC50 is the midpoint of the concentration-response curve. Low values mean greater potency, high ones weaker potency.

“Also recorded” adds a separate entry of the source.

T1 sequence (P43346 whole entry): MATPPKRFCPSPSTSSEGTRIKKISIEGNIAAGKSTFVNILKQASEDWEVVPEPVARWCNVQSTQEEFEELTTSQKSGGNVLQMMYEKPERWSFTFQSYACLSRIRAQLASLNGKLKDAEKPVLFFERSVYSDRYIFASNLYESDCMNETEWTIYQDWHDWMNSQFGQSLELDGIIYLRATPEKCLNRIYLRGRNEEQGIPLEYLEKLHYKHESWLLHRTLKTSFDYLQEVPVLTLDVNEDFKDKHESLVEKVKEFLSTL

For `COc1ccc(-c2nc(CSc3nc(N)cc(N)n3)c(C)s2)cc1OCCF` [Compound F2.2.1], in [1] (200 mg/kg oral gavage), the “Duration of inhibition of dCK activity in vivo in multiple tissues” value is on record as “at least 2 hours”. Further, the “18F-FAC signals in dCK expressing tissues” value in test [1] (Thymus, Bone marrow, spleen and GI tract) was “Significant decrease”. For the same molecule, the “18F-FAC signals in the bladder” value in test [1] (bladder, probe clearance organ) is listed as “not affected”. For the same molecule, the “dT + dCKi % S-phase arrest (of cells in cycle)” value in [2] (50 mM dT + 1 mM F2.2.1, 24 hours) stood at 84.5%; in test [3] (NALM-6, 1.6 mM dT + 1 mM F2.2.1, 24 hours), 79.8%; in test [4] (IGROV1, 1 mM dT + 1 mM F2.2.1, 24 hours) it was 60.3%. Moreover, the “Growth / proliferation of CEM cells, combination with thymidine” value in test [5] (1 μM F2.2.1 + 50 μM dT) was “almost completely shut down the growth of CEM cells; also recorded: significantly reduce the proliferation”. In test [5] (1 μM alone), the “Effect on cell viability, compound alone” value was “little effect on cell viability”. In addition, the “Growth of thymidine (dT) treated CEM cells” value in test [6] is “completely suppressed the growth”. Besides, in [7], the T cell proliferation result is listed as “significantly blocks T cell proliferation”. In addition, the “Proliferation of A549 cells, combination with thymidine” value in [8] is on record as “significantly reduce the proliferation”. Moreover, the “Proliferation of NALM-6 cells, combination with thymidine” value in test [9] is “significantly reduce the proliferation”. Moreover, in test [10], the “Inhibition of [3H]-dCyd uptake by CEM cells, in words” value (“Inhibition of [3H]-dCyd uptake” below) was “superior activities”. Besides, the IC50 in test [11] is 4930 nM.
On to `CCCc1sc(-c2ccc(OC)c(OCCO)c2)nc1CSc1nc(N)cc(N)n1` [DI-26], for which, in test [7], the T cell proliferation entry was “significantly blocks T cell proliferation”.
For `CCCc1sc(-c2ccc(OC)c(OCCO)c2)nc1CSc1nccc(N)n1` [DI-27], the “Inhibition of [3H]-dCyd uptake” value in [10] is listed as “among the most potent compounds in this panel”.
On the same count and under the same terms, next, `CCCc1sc(-c2cccc(OCCO)c2)nc1CSc1nc(N)cc(N)n1` [DI-29]: “among the most potent compounds in this panel”.
For the molecule `CCCc1sc(-c2ccnc(OCCO)c2)nc1CSc1nc(N)cc(N)n1` [DI-30], in [10], the EC50 amounted to 2.5 nM and the “Inhibition of [3H]-dCyd uptake” value was “among the most potent compounds in this panel; also recorded: superior activities”.
On to `CCOc1ccc(-c2nc(CSc3nc(N)cc(N)n3)cs2)cc1OC` [DI-0105], for which the half-maximal effective concentration (EC50) in [10] amounted to 133 nM.
The same measure, in the same setting: in the case of `COc1ccc(-c2nc(CSc3nc(N)cc(N)n3)cs2)cc1` [DI-0110] it was 478 nM; in that of `COc1ccc(Br)cc1-c1nc(CSc2nc(N)cc(N)n2)cs1` [DI-0120], 779 nM.
As to `Cc1cn([C@H]2C[C@H](O)[C@@H](CO)O2)c(=O)[nH]c1=O` [dT, thymidine, reference compound], the “dT without dCKi % S-phase arrest (of cells in cycle)” value in [2] (50 mM dT, 24 hours) is listed as 36%; in test [3] (NALM-6, 1.6 mM dT, 24 hours), 52%; in test [4] (IGROV1, 1 mM dT, 24 hours), 35.9%. Further, in test [5] (dT at 50 μM), the “Cell growth and cell cycle, thymidine alone” value was “suppressed cell growth but failed to shut down the cell cycle”.
On to `Nc1ccn([C@H]2C[C@H](O)[C@@H](CO)O2)c(=O)n1` [deoxycytidine (dC), deoxycytidine], for which, in test [5] (2.5 μM dC), the “Number of viable cells relative to vehicle control, deoxycytidine” value was “decreased the number of viable cells”.
